Where a name gives a salt, the structure may show the parent alone. Read-outs that look alike come from different tables or passages of the source.
How the values were obtained:
Format in all cases: biochemical
Abl kinase = target: T1, Abl kinase (Homo sapiens, UniProt P00519); assay: Abl kinase assay A2 (as A1, 1.1 nM enzyme, 2 h pre-incubation, 0.5 mM ATP)
T1 sequence (P00519 229-512): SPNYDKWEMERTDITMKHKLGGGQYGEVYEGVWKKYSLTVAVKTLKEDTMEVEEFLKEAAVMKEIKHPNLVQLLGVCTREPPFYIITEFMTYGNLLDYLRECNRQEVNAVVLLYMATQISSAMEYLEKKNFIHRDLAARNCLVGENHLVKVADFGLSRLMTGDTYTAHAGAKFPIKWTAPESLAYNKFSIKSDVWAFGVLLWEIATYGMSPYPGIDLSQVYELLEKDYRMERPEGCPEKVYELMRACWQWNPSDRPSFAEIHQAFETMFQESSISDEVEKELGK
Procedure: (§1) IC50 values were calculated from a series of percent inhibition values determined at a range of inhibitor concentrations using software routines as implemented in the GraphPad Prism software package.

KDR kinase [1] = target: T2, KDR kinase (Homo sapiens, UniProt P35968, DEL940-989/E990V); assay: KDR kinase assay K2 (as K1, 2.1 nM enzyme, 2 h pre-incubation, 1.0 mM ATP)
T2 sequence (P35968 with tags, fused parts or gaps DEL940-989/E990V): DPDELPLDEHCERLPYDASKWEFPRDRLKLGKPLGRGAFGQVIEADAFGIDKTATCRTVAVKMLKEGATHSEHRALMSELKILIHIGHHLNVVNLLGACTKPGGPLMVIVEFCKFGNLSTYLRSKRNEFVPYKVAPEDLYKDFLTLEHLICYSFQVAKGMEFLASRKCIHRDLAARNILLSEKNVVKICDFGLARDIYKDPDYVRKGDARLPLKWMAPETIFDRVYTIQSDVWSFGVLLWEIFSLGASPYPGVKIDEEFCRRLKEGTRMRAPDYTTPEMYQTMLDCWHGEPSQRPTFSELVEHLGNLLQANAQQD
Procedure: as §1

B-Raf(V599E) kinase = B-Raf(V599E) kinase (Homo sapiens, UniProt P15056, V600E); assay: B-Raf(V599E) kinase assay B1 (construct 1, MEK1 substrate, coupled spectrophotometric)
Sequence of B-Raf(V599E) kinase (P15056 with tags, fused parts or gaps V600E): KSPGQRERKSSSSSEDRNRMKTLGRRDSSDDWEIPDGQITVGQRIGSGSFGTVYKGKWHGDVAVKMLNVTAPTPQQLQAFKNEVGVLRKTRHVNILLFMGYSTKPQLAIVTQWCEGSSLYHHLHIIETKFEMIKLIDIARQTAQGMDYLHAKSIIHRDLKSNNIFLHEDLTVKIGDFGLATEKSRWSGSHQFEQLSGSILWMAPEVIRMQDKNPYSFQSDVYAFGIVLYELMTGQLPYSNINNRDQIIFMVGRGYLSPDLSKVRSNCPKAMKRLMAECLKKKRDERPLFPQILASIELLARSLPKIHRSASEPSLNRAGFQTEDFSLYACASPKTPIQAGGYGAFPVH
Procedure: The test compounds were incubated with the reaction mixtureat 30° C. for 2 h. […] The reaction rate was calculated using the […] time frame. […] IC50 values were calculated from a series of percent inhibition values determined at a range of inhibitor concentrations using software routines as implemented in the GraphPad Prism software package.

[2] = target: phosphorylated p-38-alpha kinase (Homo sapiens, UniProt Q16539); assay: P-38 alpha kinase assay P1 (coupled spectrophotometric, 2 h pre-incubation)
Sequence of phosphorylated p-38-alpha kinase (Q16539 1-360 isoform Q16539-2): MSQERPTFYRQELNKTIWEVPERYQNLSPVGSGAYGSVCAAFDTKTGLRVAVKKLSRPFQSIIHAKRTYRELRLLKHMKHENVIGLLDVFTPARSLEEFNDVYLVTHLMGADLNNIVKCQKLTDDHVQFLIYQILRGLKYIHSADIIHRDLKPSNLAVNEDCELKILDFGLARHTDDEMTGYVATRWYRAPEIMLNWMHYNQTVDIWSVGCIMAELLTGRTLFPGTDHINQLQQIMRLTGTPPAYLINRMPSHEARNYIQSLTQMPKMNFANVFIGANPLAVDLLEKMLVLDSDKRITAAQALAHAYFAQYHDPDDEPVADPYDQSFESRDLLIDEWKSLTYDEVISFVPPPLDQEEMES

KDR kinase [3] = target: T2, KDR kinase; assay: KDR kinase assay K1 (pyruvate kinase/lactate dehydrogenase coupled, spectrophotometric); settings: Method K1; read-out: KDR Data (IC50)
Procedure: as §1

[4] = Method A2, read-out: Abl Data (IC50)
[5] = Method K2, read-out: KDR Data (IC50)
[6] = method P1 (2 h pre-incubation), read-out: P-38 Data

SMILES	IC50 (Abl kinase; [4]) [nM]	IC50 (B-Raf(V599E) kinase) [nM]	IC50 [2, 6] [nM]	also measured
CC(C)(C)c1cc(NC(=O)Nc2cccc(Oc3cccnc3)c2)n(-c2cc(CN)c3ccccc3c2)n1 [Example 72, 1-(1-(4-(aminomethyl)naphthalen-2-yl)-3-t-butyl-1H-pyrazol-5-yl)-3-(3-(pyridin-3-yloxy)phenyl)urea]	2	4.4		IC50 (KDR kinase [1]; [5]): 8.5 nM
CC(C)(C)c1cc(NC(=O)Nc2ccc(-c3cccc4c3CNC4=O)cc2)n(-c2ccc3c(c2)CCNC3)n1 [Example 151, 1-(3-t-butyl-1-(1,2,3,4-tetrahydroisoquinolin-6-yl)-1H-pyrazol-5-yl)-3-(4-(1-oxoisoindolin-4-yl)phenyl)urea hydrochloride]				IC50 (Abl kinase): 8 nM; IC50 (KDR kinase [1]): 3.5 nM
CC(C)(C)c1cc(NC(=O)Nc2cccc(Oc3cccnc3)c2)n(-c2cc(CO)c3ccccc3c2)n1 [Example 67, 1-(3-t-butyl-1-(4-(hydroxymethyl)naphthalen-2-yl)-1H-pyrazol-5-yl)-3-(3-(pyridin-3-yloxy)phenyl)urea]	1	4.8	35	
CC(C)(C)c1cc(NC(=O)Nc2cccc(Oc3cccnc3)c2)n(-c2ccc3c(c2)CCN3)n1 [Example 119, 1-(3-t-butyl-1-(indolin-5-yl)-1H-pyrazol-5-yl)-3-(3-(pyridin-3-yloxy)phenyl)urea]	12	9.1	60	IC50 (KDR kinase [3]): 18 nM
CC(C)(C)c1cc(NC(=O)Nc2cccc(Oc3cccnc3)c2)n(-c2ccc3[nH]c(=O)ccc3c2)n1 [Example 156, 1-(3-t-butyl-1-(2-oxo-1,2-dihydroquinolin-6-yl)-1H-pyrazol-5-yl)-3-(3-(pyridin-3-yloxy)phenyl)urea]	5	4.1		IC50 (KDR kinase [1]; [5]): 3.2 nM
NC(=O)Cc1cccc(-c2ccc(C(F)(F)F)cc2NC(=O)Nc2ccc(-c3cccc4c3CNC4=O)cc2)c1 [Example 33, [1,1′-biphenyl]-2′-(3-(4-(1-oxoisoindolin-4-yl)phenyl)ureido)-4′-(trifluoromethyl)-3-acetic acid amide]	250		300	IC50 (KDR kinase [1]; [5]): 14 nM
CC(C)(C)c1cc(NC(=O)Nc2cc(F)c(F)cc2F)n(-c2cc(CC(=O)NCC(O)CO)c3ccccc3c2)n1 (stereo not shown) [Example 94, 1-(3-t-butyl-1-(4-(2-(2,3-dihydroxypropyl-amino)-2-oxoethyl)naphthalen-2-yl)-1H-pyrazol-5-yl)-3-(2,4,5-trifluorophenyl)urea]	130	4.8	68	
Cn1c(=O)c(-c2cccc(NC(=O)Nc3cc(C(C)(C)C)nn3-c3ccc4c(c3)CCC(=O)N4)c2)cc2cncnc21 [Example 132, 1-(3-t-butyl-1-(2-oxo-1,2,3,4-tetrahydroquinolin-6-yl)-1H-pyrazol-5-yl)-3-(3-(8-methyl-7-oxo-7,8-dihydropyrido[2,3-d]pyrimidin-6-yl)phenyl)urea]	13	4.8	59	
CNC(=O)c1cc(Oc2ccc(NC(=O)Nc3cc(C(C)(C)C)nn3-c3ccc4[nH]c(=O)ccc4c3)cc2)ccn1 [Example 159, 1-(3-t-butyl-1-(2-oxo-1,2-dihydroquinolin-6-yl)-1H-pyrazol-5-yl)-3-(4-(2-(methylcarbamoyl)pyridin-4-yloxy)phenyl)urea]	2.3	14	72	
CC(C)(C)c1cc(NC(=O)Nc2cccc(Cl)c2Cl)n(-c2ccc3c(c2)CCNC3)n1 [Example 138, 1-(3-t-butyl-1-(1,2,3,4-tetrahydroisoquinolin-6-yl)-1H-pyrazol-5-yl)-3-(2,3-dichlorophenyl)urea]	100	3.2	140	IC50 (KDR kinase [3]): 300 nM
CNC(=O)c1cc(Oc2ccc(NC(=O)Nc3cc(C(C)(C)C)nn3-c3ccc4nc(N(C)C)ccc4c3)cc2)ccn1 [Example 175, 1-(3-t-butyl-1-(2-(dimethylamino)quinolin-6-yl)-1H-pyrazol-5-yl)-3-(4-(2-(methylcarbamoyl)pyridin-4-yloxy)phenyl)urea]	1.5	30	160	
CC(C)(C)c1cc(NC(=O)Nc2cc(F)c(F)cc2F)n(-c2ccc3c(c2)CCNC3)n1 [Example 146, 1-(3-t-butyl-1-(1,2,3,4-tetrahydroiso-quinolin-6-yl)-1H-pyrazol-5-yl)-3-(2,4,5-trifluorophenyl)-urea]	190	8.8		
CC(C)(C)c1cc(NC(=O)Nc2cccc(C#N)c2)n(-c2cc(CN)c3ccccc3c2)n1 [Example 73, 1-(1-(4-(aminomethyl)naphthalen-2-yl)-3-t-butyl-1H-pyrazol-5-yl)-3-(3-cyanophenyl)urea]	190	45		
Cc1ccc(NC(=O)Nc2cc(C(C)(C)C)nn2-c2ccc3c(c2)CCNC3)cc1Nc1nccc(-c2cccnc2)n1 [Example 153, 1-(3-t-butyl-1-(1,2,3,4-tetrahydroisoquinolin-6-yl)-1H-pyrazol-5-yl)-3-(4-methyl-3-(4-(pyridin-3-yl)pyrimidin-2-ylamino)phenyl)urea dihydrochloride]		27		IC50 (Abl kinase): 1.2 nM
Cn1c(=O)c(-c2cccc(NC(=O)Nc3cc(C(C)(C)C)nn3-c3ccc4c(c3)CC(C(N)=O)NC4)c2)cc2cncnc21 (stereo not shown) [Example 185, 1-(3-t-butyl-1-(3-carbamoyl-1,2,3,4-tetrahydroisoquinolin-6-yl)-1H-pyrazol-5-yl)-3-(3-(8-methyl-7-oxo-7,8-dihydropyrido[2,3-d]pyrimidin-6-yl)phenyl)urea dihydrochloride]		6.9		IC50 (Abl kinase): 2.7 nM; IC50 [2]: 23 nM
CNC(=O)c1cc(Oc2ccc(NC(=O)Nc3cc(C(C)(C)C)nn3-c3ccc4nc(N5CC[C@@H](N(C)C)C5)ccc4c3)cc2)ccn1 [Example 173, 1-(3-t-butyl-1-(2-((R)-3-(dimethylamino)pyrrolidin-1-yl)quinolin-6-yl)-1H-pyrazol-5-yl)-3-(4-(2-(methylcarbamoyl)pyridin-4-yloxy)phenyl)urea]	4.2	63		
CC(C)(C)c1cc(NC(=O)Nc2cccc(Cl)c2Cl)n(-c2ccc3c(c2)CNCC3)n1 [Example 123, 1-[3-t-butyl-1-(1,2,3,4-tetrahydroisoquinolin-7-yl)-1H-pyrazol-5-yl]-3-(2,3-dichloro-phenyl)urea]	290	4.9		IC50 (KDR kinase [3]): 190 nM
CC(C)(C)c1cc(NC(=O)Nc2cccc(Oc3cccnc3)c2)n(-c2cc(CC(=O)NCC(O)CO)c3ccccc3c2)n1 (stereo not shown) [Example 97, 1-(3-t-butyl-1-(4-(2-(2,3-dihydroxypropyl-amino)-2-oxoethyl)naphthalen-2-yl)-1H-pyrazol-5-yl)-3-(3-(pyridin-3-yloxy)phenyl)urea]	1.5	7.2		
CNC(=O)c1cc(Oc2ccc(NC(=O)Nc3cc(C4CCCC4)nn3-c3ccc4[nH]c(=O)ccc4c3)cc2)ccn1 [Example 163, 1-(3-cyclopentyl-1-(2-oxo-1,2-dihydroquinolin-6-yl)-1H-pyrazol-5-yl)-3-(4-(2-(methylcarbamoyl)pyridin-4-yloxy)phenyl)urea]	6.3	18		
CC(C)(C)c1cc(NC(=O)Nc2cccc(Oc3cccnc3)c2)n(-c2ccc3[nH]ccc3c2)n1 [Example 116, 1-(3-t-butyl-1-(1H-indol-5-yl)-1H-pyrazol-5-yl)-3-(3-(pyridin-3-yloxy)phenyl)urea]	6.6	5.9		IC50 (KDR kinase [1]; [5]): 5 nM

Reference: US8163756B2 (priority 2004, dated 2012)
